In US20110130369A1, “USE OF FTS FOR THE TREATMENT OF MYOCARDIAL ISCHEMIA/REPERFUSION INJURY” (RAMOT AT TEL-AVIV UNIVERSITY LTD., priority 2008, published 2011):

Tests used:
isolated rat heart [1] = experiment: Measurement of irreversible ischemic injury by TTC staining of isolated perfused hearts; conditions: FTS 1 μM perfusion, 30 minutes ischemia and 30 minutes of reperfusion; control 23.7±4%, p<0.05; mean±SE
Experimental: (§1) Rats were heparinized (500 U/kg) and anesthetized (i.p.) with ether. The hearts were quickly removed, the aorta was cannulated and the heart perfused in retrograde according to Langendorff at a pressure of 96 cmH2O with oxygenated Krebs-Henseleit bicarbonate buffer solution (KHB) containing (mM): 118 NaCl, 2.4 KCl, 1.2 MgSO4, 7×H2O, 2.5 CaCl2, 5 EDTA, 1.2 KH2PO4, 25 NaHCO3, 4 glucose at 37° C. [[…], Offen D, Maulik N, Otani H, Barhum Y, et al., Am J Physiol Heart Circ Physiol 284:H2351-59 (2003)]. The isolated heart was stabilized for 20 minutes at a constant perfusion pressure and then subjected to 30 minutes of ischemia followed by 30 minutes of reperfusion. Ischemia was created by clamping the aortic cannula. During reperfusion, hearts were given KHB (buffer) with FTS or KHB only. The temperature of the heart (measured in the right ventricle) was maintained at 37°±0.2° C. throughout the experiment by a micro-thermocouple connected to a digital thermometer (Webster Laboratories […], Calif.). In all stages of the protocol, the left ventricular developed pressure (LVP), the rate of pressure development and relaxation (±dP/dt) and the heart rate (HR), were continuously recorded by the CODAS data acquisition system (San Diego, Calif.). Rate pressure product (RPP), an index of myocardial workload, was calculated by multiplying LVP by HR. […]

isolated rat heart [2] = experiment: Isolated heart perfusion (Langendorff), 30 min ischemia / 30 min reperfusion, hemodynamic recovery; conditions: FTS 1 μM in perfusate
Experimental: FTS was provided by Concordia Pharmaceuticals, Inc. (Ft. Lauderdale, Fla.). […] The powder was dissolved in DMSO and diluted with Krebs-Henseleit bicarbonate buffer solution (KHB) to yield a 1 μM drug solution containing 10% DMSO. Rats were heparinized (500 U/kg) and anesthetized (i.p.) with ether. The hearts were quickly removed, the aorta was cannulated and the heart perfused in retrograde according to Langendorff at a pressure of 96 cmH2O with oxygenated Krebs-Henseleit bicarbonate buffer solution (KHB) containing (mM): 118 NaCl, 2.4 KCl, 1.2 MgSO4, 7×H2O, 2.5 CaCl2, 5 EDTA, 1.2 KH2PO4, 25 NaHCO3, 4 glucose at 37° C. [[…], Offen D, Maulik N, Otani H, Barhum Y, et al., Am J Physiol Heart Circ Physiol 284:H2351-59 (2003)]. The isolated heart was stabilized for 20 minutes at a constant perfusion pressure and then subjected to 30 minutes of ischemia followed by 30 minutes of reperfusion. Ischemia was created by clamping the aortic cannula. During reperfusion, hearts were given KHB (buffer) with FTS or KHB only. The temperature of the heart (measured in the right ventricle) was maintained at 37°±0.2° C. throughout the experiment by a micro-thermocouple connected to a digital thermometer (Webster Laboratories […], Calif.). In all stages of the protocol, the left ventricular developed pressure (LVP), the rate of pressure development and relaxation (±dP/dt) and the heart rate (HR), were continuously recorded by the CODAS data acquisition system (San Diego, Calif.). Rate pressure product (RPP), an index of myocardial workload, was calculated by multiplying LVP by HR. Coronary effluent was collected at one-minute intervals before and after ischemia, at various time points (1, 10 and 30 minutes reperfusion) and analyzed for CK activity (Boehringer Mannheim). Results are expressed as means±standard error of the mean (SE). Values during stabilization period were defined as 100%. A statistical difference between the groups was assessed by analysis of variance (ANOVA) with repeated measurements using the multiple comparison option of Duncan. If differences were established, values were compared using Student's t-test: p<0.05 was considered significant. To determine the protective effects of Ras protein inhibition on cardiac damage derived from I/R injury ex vivo, we first determined the baseline absolute values of the rats and cardiac function prior to ischemia in FTS (1 μM) and control groups. […] Values are expressed as mean±SE. Next, we perfused the isolated rat hearts with FTS (1 μM) in the Langendorff system after 30 minutes of ischemia (FIG. 1). FTS had no effect on the CF recovery in the FTS vs. control group (FIG. 1A) during the 30 minutes of reperfusion.

[3] = tested on: Ras and its downstream effectors; experiment: Western immunoblotting / Ras-GTP pull-down of hearts from LAD ligation rats (in vivo); design: species or system rat; conditions: Protocol A, 5 mg/kg
[4] = tested on: Ras and its downstream effectors; experiment: Western immunoblotting / Ras-GTP pull-down of homogenates of isolated perfused hearts (ex vivo); design: species or system rat; conditions: FTS 1 μM, 30 minutes of reperfusion
Experimental: Hearts were obtained from FTS- and PBS-treated rats (LAD ligation experiments) and from isolated heart perfusion experiments. The hearts were homogenized in cold homogenization buffer containing protease inhibitors. Protein concentration was determined by the Bradford assay and samples containing 100 μg protein were used for determination of protein levels by Western immunoblotting using: pan-anti-Ras Ab (Ab03; Santa Cruz, Calif.), anti JNK Ab (Cell Signaling; Danvers, Mass.), anti p-JNK Ab (Cell Signaling), anti P38 Ab (Cell Signaling), anti p-P38 Ab (Cell Signaling), anti Mst1 Ab (Cell Signaling), and anti p-Mst1 Ab (Cell Signaling). Enhanced chemiluminescence (ECL) and densitometric analysis were performed as detailed previously [[…], Weisz […], Paz A, Marciano D, Egozi Y, et al., Biochemistry 37(5):1306-14 (1998)1. The hearts were prepared as described above. Samples containing 0.5 mg protein used for determination of levels of active GTP-bound Ras by the glutathione S-transferase-RBD pull-down assay followed by Western immunoblotting with pan-anti-Ras Ab as detailed previously [Jansen […], Mayer […], et al., Proc Natl Acad Sci U.S.A. 96(24):14019-24 (1999)]. To examine the effect of FTS on Ras signaling on its prominent downstream effectors, Western immunoblotting using homogenates of the isolated perfused hearts was performed. Quantitative analysis of the immunoblots disclosed a reduction in levels of active Ras (Ras-GTP) and p-Jnk in hearts of the FTS group (p<0.05) at 30 minutes of reperfusion.

[5] = human, in vivo; cited from earlier work
Male Lewis rats [6] = experiment: LAD artery ligation I/R model, echocardiography at day 14; conditions: 5 mg/kg i.p.
Experimental: (§2) At the age of 12 weeks, rats were anesthetized (mixture of 8 mg/100 g ketamine, 5 mg/100 g xylazine), intubated, and ventilated with a Harvard Rodent Ventilator Model 383 (respiratory rate: 50/min, respiratory volume: 2.5 mL). A rectal thermocouple was used to continuously monitor body temperature, which was maintained at 37° C. using a heating pad. A left thoracotomy in the third intercostal space was performed to expose the heart. The location of the left descending coronary artery was identified and then occluded with a 6-0 silk suture. Occlusion was confirmed by monitoring the pallor of the region at risk, and an electrocardiogram was used to observe changes such as widening of QRS and ST-T segment elevation. After 30 minutes, the occlusion was removed, the thorax was closed, and rats were returned to their cages at the local vivarium.
FTS was stored in chloroform, which was evaporated under a stream of nitrogen immediately before use. The powder was dissolved in absolute ethanol and diluted to the desired concentration in sterile PBS made basic with NaOH. Carrier solution (1000 μl) containing 1.35 mg of FTS (5 mg/kg) was injected intraperitoneally (i.p.) into each rat. Control solution was prepared at the same time starting with PBS and absolute ethanol.
LAD ligation was performed in two groups of rats. Group 1 received 5 mg/kg FTS and group 2 received PBS according to two protocols: (A) FTS or PBS was administered 7 days on a daily basis before LAD ligation, locally during occlusion opening (0.5 μM/100 μl), and continued for 14 days, every other day [prophylactic regimen] (B) FTS or PBS was administered 14 days after LAD ligation every other day [treatment regimen].
To examine the effect of systemic FTS treatment on the heart, in vivo experiments were conducted according two protocols.

isolated rat heart [7] = experiment: Enzymatic leakage of CK and LDH into the coronary effluent of isolated perfused hearts; conditions: FTS 1 μM, at 1 minute and 30 minutes of reperfusion
Experimental: as §1

Male Lewis rats [8] = experiment: LAD artery ligation I/R model, histopathology (H&E and Masson Trichrome), area of irreversible damage; conditions: 5 mg/kg i.p.
Experimental: as §2
FTS was stored in chloroform, which was evaporated under a stream of nitrogen immediately before use. The powder was dissolved in absolute ethanol and diluted to the desired concentration in sterile PBS made basic with NaOH. […]
Hearts were removed and fixed in 4% formalin, then embedded in paraffin. […] Slides were then assessed in a blinded fashion by a pathologist using light microscopy and scored for the percentage of LVP involvement and collagen deposition. Scar area was evaluated using data from both H&E and Masson staining. […]

[9] = reperfusion after 30 minutes of ischemia, p<0.05
[10] = Protocol A (prophylactic regimen), p<0.05

Q: Which results are given for `CC(C)=CCC/C(C)=C/CC/C(C)=C/CSc1ccccc1C(=O)O` [FTS, S-farnesylthiosalicylic acid]?
A: regions of irreversible ischemic injury (TTC-negative area, percentage of the entire area of the section) (isolated rat heart [1]): 12.7±2%; CF (coronary flow) recovery vs. control (isolated rat heart [2]; 30 minutes of reperfusion after 30 minutes of ischemia): no effect; recovery of HR vs. control (isolated rat heart [2]; reperfusion after 30 minutes of ischemia): no significant difference; LVP recovery vs. control (isolated rat heart [2]; [9]): significantly better; ±dP/dt recovery vs. control (isolated rat heart [2]; [9]): significantly better; levels of Jnk vs. control [3]: did not differ; levels of Mst vs. control [3]: did not differ; levels of P38 vs. control [3]: did not differ; levels of p-Jnk vs. control [3]: did not differ; levels of p-P38 vs. control [3]: did not differ; levels of active Ras (Ras-GTP) vs. control ([3]; p<0.05): reduction; levels of p-Mst1 vs. control ([3]; p<0.05): reduction; levels of total Ras vs. control ([3]; p<0.05): reduction; Jnk levels vs. control [4]: No differences; Mst1 levels vs. control [4]: No differences; P38 levels vs. control [4]: No differences; p-Mst1 levels vs. control [4]: No differences; p-P38 levels vs. control [4]: No differences; total Ras levels vs. control [4]: No differences; levels of active Ras (Ras-GTP) vs. control ([4]; p<0.05): reduction; levels of p-Jnk vs. control ([4]; p<0.05): reduction; tolerability / dose-limiting toxicities [5]: well-tolerated compound without dose-limiting toxicities; hemodynamic parameters of cardiac function vs. control I/R (Male Lewis rats [6]; Protocol A (prophylactic regimen)): significant improvement in most hemodynamic parameters; left ventricular end-diastolic area (LVEDA) vs. control I/R (Male Lewis rats [6]; [10]): significantly better; left ventricular end-systolic area (LVESA) vs. control I/R (Male Lewis rats [6]; [10]): significantly better; septum diameter (Male Lewis rats [6]; Protocol A (prophylactic regimen), control I/R 0.1±0.01, p<0.05, mean±SE): 0.14±0.01 cm; fractional shortening of area (Male Lewis rats [6]; Protocol A (prophylactic regimen), control I/R 38±4%, p<0.05, mean±SE): 55±6%; cardiac hemodynamic function vs. control I/R (Male Lewis rats [6]; Protocol B (treatment regimen, 14 days post-LAD ligation)): no improvement; CK release to the coronary effluent vs. control (isolated rat heart [7]): lower in the FTS group compared with control group, but did not reach statistical significance; LDH release to the coronary effluent vs. control (isolated rat heart [7]): lower in the FTS group compared with control group, but did not reach statistical significance; area of irreversible damage (percentage of LV wall) (Male Lewis rats [8]; Protocol A (prophylactic regimen), control I/R 36±7%, mean±SE): 17.25±2.5%; area of irreversible damage vs. control I/R (Male Lewis rats [8]; Protocol B (treatment regimen)): did not show a significant difference
